Experiment [1] deals with AR42J (pancreatic cancer) cells. Briefly: MTT cytotoxicity assay. It counts as cell-based, human. The method, then: (§1) This study included three epithelial cancerous (AR42J, pancreatic cancer; HeLa, cervical cancer, and MDA‐MB‐231 breast cancer) and two noncancerous epithelial human cells (ARPE‐19, retina; and MCF10A, breast). AR42J (ECACC, Cat No. 93100618) and MDA‐MB‐231 (ATCC, Cat No. HTB‐26) cells were cultured in RPMI media. HeLa cells (ATCC, Cat No. CCl‐2) were cultured in EMEM media. ARPE‐19 (ATCC, Cat No. CRL‐2302) and MCF10A (ATCC, Cat No. CRL‐10317) cells were cultured in DMEM. Each medium consisted of penicillin–streptomycin (1%) and fetal bovine serum (10%). Cells were cultured in a 37°C incubator with 5% CO2 humidification. Cells were cultured in 96‐well plates as 10.000 cells per well. After they reached at 80% confluency, cells were treated with extracts. For this, experiments for each cell included two groups, (1) treated with T. coelesyriacus extracts obtained by methanol for 24 h, 48 h, and 72 h at 3.125, 6.25, 12.5, 25, […], 100, and 200 μg/mL, and (2) treated with T. coelesyriacus extracts obtained by water for 24 h, 48 h, and 72 h at 3.125, 6.25, 12.5, 25, […], 100, and 200 μg/mL. Control wells for each cell were untreated (0 μg/mL). Positive control experiments were performed with cisplatin at the same concentrations with extracts (3.125–100 μg/mL) for 24 h, 48 h, and 72 h. For each dose at each concentration, at least three wells were used as intra‐experimental repeats. The whole experiments for each cell were repeated as two to three independent replications.
(§2) After treatment with different extracts (at 3.125, 6.25, 12.5, 25, 50, 100, and 200 μg/mL for 24 h, 48 h, and 72 h), media with extracts were removed, and the MTT protocol was applied as before (Cakmak et al., [2021]). MTT was also applied after cisplatin treatment for 24 h, 48 h, and 72 h. The concentrations of cisplatin used were 3.125, 6.25, 12.5, 25, 50, and 100 μg/mL. In this method, 200 μL of media, including 10 μL MTT (3‐(4,5‐dimethylthiazol‐2‐yl)‐2,5‐diphenyltetrazolium bromide), was added to each well and incubated at 37°C for 2.5 h. After incubation, media with MTT were removed, and 150 μL of DMSO was added to each well for dissolving formazan crystals. Subsequently, plates were incubated in the dark on a shaker for 1 h. Absorbances at 570 nm were read. Cell viabilities (as percentages) were calculated according to the viability of untreated cells considered as 100%. If applicable, IC50 values were calculated as before (Uzuner et al., [2021]).
(Tetrazolium assays rely on reduction of a dye to a coloured formazan, in cell work by metabolically active cells.)

For experiment [2], the system named is MCF10A (breast epithelial) cells. Put plainly: MTT cytotoxicity assay. In kind it is cell-based, human. The settings on record: MCF10A normal cells. As to the method:
as §1, §2

For experiment [3], the system named is HeLa (cervical cancer) cells. Put plainly: MTT cytotoxicity assay. In kind it is cell-based, human. The method, then:
as §1, §2

The subject of experiment [4] is ARPE‐19 (retinal epithelial) cells. Briefly: MTT cytotoxicity assay. In kind it is cell-based, human. The settings on record: ARPE19 normal cells. The method, then: as §1, §2
In experiment [5] the test system is MDA‐MB‐231 (breast cancer) cells. Briefly: MTT cytotoxicity assay. In kind it is cell-based, human. The method, then:
as §1, §2

The test system of a further experiment is HeLa cells. The arrangement: method as in Liu et al., 2008. The settings on record: 25 μg/mL for 72 h, ref Liu et al., 2008; cited from earlier work.

For `N.N.[Cl][Pt][Cl]` [cisplatin], the IC50 value in experiment [1] (24 h incubation) was 18.94 µg/mL; in experiment [1] (48 h incubation) it was 14.84 µg/mL; in experiment [1] (72 h incubation), 6.18 µg/mL; in experiment [3] (72 h incubation), 4.56 µg/mL; in experiment [5] (MDA‐MB‐231, 72 h incubation), 10.92 µg/mL. Also, the “Ave IC50 values” in experiment [2] (24 h) came to 33.56 µg/mL; in experiment [2] (48 h) it was 26.03 µg/mL; in experiment [2] (72 h), 8.32 µg/mL; in experiment [3] (24 h), 8.16 µg/mL; in experiment [3] (48 h) it was 13.92 µg/mL; in experiment [4] (24 h), 63.42 µg/mL. Moreover, the “Ave IC50 values” in experiment [4] (48 h) was found to be 54.14 µg/mL; in experiment [4] (72 h), 16.01 µg/mL; in experiment [5] (MDA‐MB‐231, 24 h) it was 41.28 µg/mL; in experiment [5] (MDA‐MB‐231, 48 h), 27.87 µg/mL. In addition, in the experiment with HeLa cells, the cell death is given as approximately 90%.
